Experimental findings from US6613781B2, “Heterocyclylaklylindole or -azaindole compounds as 5-hydroxytryptamine-6 ligands” (Wyeth, priority 2000, dated 2003) are described below.

SMILES strings stand for the structures. Where a name gives a salt, the structure may show the parent alone.

T1 sequence (P50406 whole entry): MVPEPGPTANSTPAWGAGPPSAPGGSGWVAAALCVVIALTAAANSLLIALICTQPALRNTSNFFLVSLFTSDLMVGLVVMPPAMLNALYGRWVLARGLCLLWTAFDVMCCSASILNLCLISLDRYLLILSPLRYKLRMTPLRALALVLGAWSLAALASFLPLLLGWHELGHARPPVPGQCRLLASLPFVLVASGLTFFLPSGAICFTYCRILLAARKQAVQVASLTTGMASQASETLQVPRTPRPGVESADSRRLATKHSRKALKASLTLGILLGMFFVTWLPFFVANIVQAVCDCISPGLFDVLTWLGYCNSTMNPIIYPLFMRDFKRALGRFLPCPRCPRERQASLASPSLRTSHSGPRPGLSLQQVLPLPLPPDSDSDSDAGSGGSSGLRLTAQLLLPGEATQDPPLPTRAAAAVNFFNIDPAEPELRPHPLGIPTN

Test system in one data set: not given
Experiment: not given
Details: not given
As usually defined, the melting point is the temperature of the solid-liquid transition. Compound `COc1ccc(S(=O)(=O)n2cc(CC3CCNCC3)c3cc(F)ccc32)cc1OC` (as salt: hydrochloride) [Example 18, 1-[(3,4-dimethoxyphenyl)sulfonyl]-5-fluoro-3-(piperidin-4-ylmethyl)-1H-indole] gave a melting point of 246 °C. For the compound `N#Cc1ccc(S(=O)(=O)n2cc(CC3CCNCC3)c3cc(F)ccc32)cc1` (as salt: hydrochloride) [Example 19, 4-{[5-fluoro-3-(piperidin-4-ylmethyl)-1H-indol-1-yl]sulfonyl}benzonitrile], the melting point was 249 °C.

Take `O=S(=O)(c1cccc2cccnc12)n1cc(CC2CCNCC2)c2cc(F)ccc21` (as salt: hydrochloride) [Example 20, 8-{[5-fluoro-3-(piperidin-4-ylmethyl)-1H-indol-1-yl]sulfonyl}quinoline]: the melting point came out at 245 °C. The same measure, in the same setting: as for `Nc1ccc(S(=O)(=O)n2cc(CC3CCNCC3)c3ccc(F)cc32)cc1` (as salt: hydrochloride) [Example 28], the figure is 198 to 200 °C.

Another data set concerns the target T1, human cloned 5-HT6 receptors (Homo sapiens, UniProt P50406).
T1 construct: expressed in transfected cells; host or cells: Hela cells
Nature of the data set: Comparative evaluation of 5-HT6 binding affinity ([3H]-LSD displacement, Hela cell membranes).
Details: not given
The protocol: The affinity of test compounds for the serotonin 5-HT6 receptor is evaluated in the following manner. Cultured Hela cells expressing human cloned 5-HT6 receptors are harvested and centrifuged at low speed (1,000×g) for 10.0 min to remove the culture media. The harvested cells are suspended in half volume of fresh physiological phosphate buffered saline solution and recentrifuged at the same speed. This operation is repeated. The collected cells are then homogenized in ten volumes of 50 mM Tris.HCl (pH 7.4) and 0.5 mM EDTA. The homogenate is centrifuged at 40,000×g for 30.0 min and the precipitate is collected. The obtained pellet is resuspended in 10 volumes of Tris.HCl buffer and recentrifuged at the same speed. The final pellet is suspended in a small volume of Tris.HCl buffer and the tissue protein content is determined in aliquots of 10-25 μl volumes. Bovine Serum Albumin is used as the standard in the protein determination according to the method described in Lowry et al., J. Biol. Chem., 193:265 (1951). The volume of the suspended cell membranes is adjusted to give a tissue protein concentration of 1.0 mg/ml of suspension. The prepared membrane suspension (10 times concentrated) is aliquoted in 1.0 ml volumes and stored at −70° C. until used in subsequent binding experiments.
Binding experiments are performed in a 96 well microtiter plate format, in a total volume of 200 μl. […] The test compounds are added in 20.0 μl volume.
The reaction is allowed to proceed in the dark for 120 min at room temperature, at which time, the bound ligand-receptor complex is filtered off on a 96 well unifilter with a Packard Filtermate® 196 Harvester. The bound complex caught on the filter disk is allowed to air dry and the radioactivity is measured in a Packard TopCount® equipped with six photomultiplier detectors, after the addition of 40.0 μl Microscint®-20 scintillant to each shallow well. The unifilter plate is heat-sealed and counted in a PackardTopCount® with a tritium efficiency of 31.0%.
Binding in the presence of varying concentrations of test compound is expressed as a percentage of specific binding in the absence of test compound. The results are plotted as log % bound versus log concentration of test compound. […] A linear regression line of data points is plotted, from which the IC50 value is determined and the Ki value is determined based upon the following equation: […]
where L is the concentration of the radioactive ligand used and KD is the dissociation constant of the ligand for the receptor, both expressed in nM.
Broadly, the Ki is the dissociation constant of the complex between target and ligand, obtained from inhibition or displacement. In turn, `CC(C)C[C@H]1C(=O)N2CCC[C@H]2[C@]2(O)O[C@](NC(=O)[C@@H]3C=C4c5cccc6[nH]c(Br)c(c56)C[C@H]4N(C)C3)(C(C)C)C(=O)N12` [Bromocriptine, reference compound] returned an inhibition constant Ki of 23 nM.

The same data set, now with this note: [3H]-LSD 3.0 nM; membranes of Hela cells expressing human cloned 5-HT6 receptors; 120 min, room temperature; read-out: 5-HT6 Binding Ki.
In the case of `O=S(=O)(c1ccccc1)n1cc(CC2CCNCC2)c2cc(F)ccc21` [Example 6, 5-Fluoro-1-phenylsulfonyl)-3-(4-piperidinylmethyl)-1H-indole hydrochloride], the Ki is 12 nM. On the same count and under the same terms, as for `Nc1ccc(S(=O)(=O)n2cc(CC3CCNCC3)c3cc(F)ccc32)cc1` [Example 7, 4-{[5-Fluoro-3-(4-piperidinylmethyl)-1H-indole-1-yl]sulfonyl}aniline], the figure is 1 nM; as for `O=S(=O)(c1cccc2ccccc12)n1cc(CC2CCNCC2)c2cc(F)ccc21` [Example 10, 5-Fluoro-1-(1-naphthylsulfonyl)-3-(4-piperidinylmethyl)-1H-indole hydrochloride], 13 nM; as for `COc1ccc(S(=O)(=O)n2cc(CC3CCNCC3)c3cc(F)ccc32)cc1OC` [Example 18, 1-[(3,4-dimethoxyphenyl)sulfonyl]-5-fluoro-3-(piperidin-4-ylmethyl)-1H-indole], 8 nM.

Consider `N#Cc1ccc(S(=O)(=O)n2cc(CC3CCNCC3)c3cc(F)ccc32)cc1` [Example 19, 4-{[5-fluoro-3-(piperidin-4-ylmethyl)-1H-indol-1-yl]sulfonyl}benzonitrile], for which the Ki is 162 nM. With `O=S(=O)(c1cccc2cccnc12)n1cc(CC2CCNCC2)c2cc(F)ccc21` [Example 20, 8-{[5-fluoro-3-(piperidin-4-ylmethyl)-1H-indol-1-yl]sulfonyl}quinoline], the Ki amounted to 2 nM. Regarding `O=S(=O)(c1ccccc1)n1cc(CC2CCNCC2)c2ccc(F)cc21` [Example 21, 6-flouro-1-(phenylsulfonyl)-3-(4-piperidinylmethyl)-1H-indole], the Ki worked out at 13 nM. Same read-out and setting: as for `O=S(=O)(c1cccc2ccccc12)n1cc(CC2CCNCC2)c2ccc(F)cc21` [Example 22, 6-flouro-1-(1-naphthylsulfonyl)-3-(4-piperidinylmethyl)-1H-indole], the figure is 24 nM. As for `COc1ccc(S(=O)(=O)n2cc(CC3CCNCC3)c3ccc(F)cc32)cc1OC` [Example 23, 6-flouro-1-(3,4-dimethoxyphenylsulfonyl)-3-(4-piperidinylmethyl)-1H-indole], the Ki was found to be 19 nM. Same read-out and setting: as for `O=S(=O)(c1ccccc1Cl)n1cc(CC2CCNCC2)c2ccc(F)cc21` [Example 24, 6-flouro-1-(2-chlorophenylsulfonyl)-3-(4-piperidinylmethyl)-1H-indole], the figure is 13 nM; as for `O=S(=O)(c1ccc(Cl)s1)n1cc(CC2CCNCC2)c2ccc(F)cc21` [Example 25, 6-flouro-1-(5-chlorothien-2-ylsulfonyl)-3-(4-piperidinylmethyl)-1H-indole], 18 nM; as for `O=S(=O)(c1ccccc1F)n1cc(CC2CCNCC2)c2ccc(F)cc21` [Example 26, 6-flouro-1-(2-fluorophenylsulfonyl)-3-(4-piperidinylmethyl)-1H-indole], 17 nM.

With `O=S(=O)(c1cccc(F)c1)n1cc(CC2CCNCC2)c2ccc(F)cc21` [Example 27, 6-flouro-1-(3-fluorophenylsulfonyl)-3-(4-piperidinylmethyl)-1H-indole], the Ki was 29 nM. As for `Nc1ccc(S(=O)(=O)n2cc(CC3CCNCC3)c3ccc(F)cc32)cc1` [Example 28], the Ki is 3 nM.

For `CN1CCN(C2=Nc3ccccc3Oc3ccc(Cl)cc32)CC1` [Loxapine, reference compound], the Ki is 41.4 nM.
